Data published in the supplement of paper PMC11061612.

Legend:
Assay in all cases: Bliss excess, mean over the matrix (fraction); higher = more synergy
[1] = test system: LNZTA3WT4 (Low Grade Glioma)
Method in brief: (§1)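 Bliss excess equals the observed combination effect minus the expected value EA + EB − EA·EB, where EA and EB are the effects of each agent alone. Combination Emax is the second-highest inhibition within the matrix. Inhibition was scaled from CellTiter-Glo 2.0 luminescence, with 0 set by vehicle wells and 1 by blank wells, after 72 hours of two-drug dosing of cells plated in 1536-well plates.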

EW-11 (Ewing's Sarcoma) = test system: EW-11 (Ewing's Sarcoma)
Method in brief: as §1

[2] = test system: FTC-133 (Thyroid Gland Carcinoma)
Method in brief: as §1

NCI-H2052 (Mesothelioma) = test system: NCI-H2052 (Mesothelioma)
Method in brief: as §1

[3] = test system: CAL-33 (Oral Cavity Carcinoma)
Method in brief: as §1

[4] = test system: HuCCT1 (Biliary Tract Carcinoma)
Method in brief: as §1

[5] = test system: L-428 (Hodgkin's Lymphoma)
Method in brief: as §1

[6] = test system: ALL-PO (B-Lymphoblastic Leukemia)
Method in brief: as §1

[7] = test system: OV-56 (Ovarian Carcinoma)
Method in brief: as §1

[8] = test system: NCI-H209 (Small Cell Lung Carcinoma)
Method in brief: as §1

GAMG (Glioblastoma) = test system: GAMG (Glioblastoma)
Method in brief: as §1

[9] = test system: SW1710 (Bladder Carcinoma)
Method in brief: as §1

[10] = test system: NUGC-4 (Gastric Carcinoma)
Method in brief: as §1

[11] = test system: OVCAR-5 (Ovarian Carcinoma)
Method in brief: as §1

[12] = test system: BFTC-909 (Kidney Carcinoma)
Method in brief: as §1

[13] = test system: HH (T-Cell Non-Hodgkin's Lymphoma)
Method in brief: as §1

[14] = test system: MHH-CALL-2 (B-Lymphoblastic Leukemia)
Method in brief: as §1

LOXIMVI (Melanoma) = test system: LOXIMVI (Melanoma)
Method in brief: as §1

[15] = test system: YAPC (Pancreatic Carcinoma)
Method in brief: as §1

[16] = test system: ESS-1 (Other Solid Carcinomas)
Method in brief: as §1

Row | SMILES | Bliss excess [1] | Bliss excess (EW-11 (Ewing's Sarcoma)) | Bliss excess [2] | Bliss excess (NCI-H2052 (Mesothelioma)) | Bliss excess [3] | Bliss excess [4] | Bliss excess [5] | Bliss excess [6] | Bliss excess [7] | Bliss excess [8] | Bliss excess (GAMG (Glioblastoma)) | Bliss excess [9] | Bliss excess [10] | Bliss excess [11] | Bliss excess [12] | Bliss excess [13] | Bliss excess [14] | Bliss excess (LOXIMVI (Melanoma)) | Bliss excess [15] | Bliss excess [16]
1 | COc1nnc2ccc(N3CCC(c4ccc(OCCN5CCN(C)C(=O)[C@H]5C)cc4)CC3)nn12 [AZD5153] + CCN(CCO)CCCOc1ccc2c(Nc3cc(CC(=O)Nc4cccc(F)c4)[nH]n3)ncnc2c1 [AZD2811] (first compound max 1 µM, 7x7, partner max 1 µM) | -0.0415 | -0.06 | -0.0014 | -0.0479 | -0.128 | -0.0331 | 0.0085 | -0.0134 | -0.0288 | -0.0145 | 0.0004 | -0.052 | -0.0508 | -0.0781 | 0.0272 | 0.0055 | 0.0191 | -0.0129 | -0.0203 | -0.0091
2 | NC1(C(=O)N[C@@H](CCO)c2ccc(Cl)cc2)CCN(c2ncnc3[nH]ccc23)CC1 [Capivasertib] + CC(=O)c1c(C)c2cnc(Nc3ccc(N4CCNCC4)cn3)nc2n(C2CCCC2)c1=O [Palbociclib] (first compound max 10 µM, 7x7, partner max 10 µM) | 0.0103 | 0.0121 | -0.011 | -0.0171 | 0.0918 | -0.0067 | -0.0092 | -0.0252 | 0.0301 | -0.0433 | 0.0237 | -0.009 | -0.0345 | -0.0396 | 0.006 | -0.0305 | -0.0739 | 0.0391 | 0.0043 | -0.0479
3 | CC1(C)CCC(CN2CCN(c3ccc(C(=O)NS(=O)(=O)c4ccc(NCC5CCOCC5)c([N+](=O)[O-])c4)c(Oc4cnc5[nH]ccc5c4)c3)CC2)=C(c2ccc(Cl)cc2)C1 [Venetoclax] + C=CCn1c(=O)c2cnc(Nc3ccc(N4CCN(C)CC4)cc3)nc2n1-c1cccc(C(C)(C)O)n1 [AZD1775] (first compound max 1 µM, partner max 1 µM) | 0.0509 | 0.0341 | 0.0065 | -0.0145 | -0.0631 | -0.0281 | -0.0298 | 0.136 | -0.0114 | 0.107 | 0.0112 | -0.0519 | -0.0733 | 0.0332 | -0.0556 | 0.029 | -0.0382 | 0.0417 | -0.0356 | 0.0835
4 | COc1nnc2ccc(N3CCC(c4ccc(OCCN5CCN(C)C(=O)[C@H]5C)cc4)CC3)nn12 [AZD5153] + Cc1c2c(nn1C)CSCc1cc(n(C)n1)CSc1cc(c3ccccc3c1)OCCCc1c(C(=O)O)n(C)c3c-2c(Cl)ccc13 [AZD5991] (first compound max 1 µM, 7x7, partner max 1 µM) | 0.0112 | 0.111 | -0.0112 | -0.018 | 0.0009 | -0.0543 | -0.023 | 0.0091 | -0.0093 | 0.0546 | -0.0043 | -0.0389 | 0.0081 | -0.043 | -0.0034 | 0.0776 | 0.002 | 0.0393 | -0.0355 | 0.0032
5 | CC(=O)c1c(C)c2cnc(Nc3ccc(N4CCNCC4)cn3)nc2n(C2CCCC2)c1=O [Palbociclib] + Cc1c2c(nn1C)CSCc1cc(n(C)n1)CSc1cc(c3ccccc3c1)OCCCc1c(C(=O)O)n(C)c3c-2c(Cl)ccc13 [AZD5991] (first compound max 10 µM, 7x7, partner max 1 µM) | 0.0064 | 0.0284 | -0.0515 | -0.0298 | 0.016 | -0.0461 | -0.0554 | -0.0065 | -0.0824 | -0.0107 | -0.0142 | -0.0405 | -0.0486 | -0.0406 | 0.0029 | -0.131 | -0.0451 | -0.0325 | -0.0037 | -0.0067
6 | NC1(C(=O)N[C@@H](CCO)c2ccc(Cl)cc2)CCN(c2ncnc3[nH]ccc23)CC1 [Capivasertib] + COc1nnc2ccc(N3CCC(c4ccc(OCCN5CCN(C)C(=O)[C@H]5C)cc4)CC3)nn12 [AZD5153] (first compound max 10 µM, 7x7, partner max 1 µM) | 0.0305 | 0.115 | 0.0923 | 0.0133 | 0.051 | 0.0113 | -0.0239 | -0.0116 | 0.0506 | -0.0007 | 0.039 | 0.0751 | -0.0333 | 0.0138 | 0.0433 | 0.0022 | -0.03 | 0.0133 | 0.007 | 0.0342
